Assay results reported in patent US20250127162A1, “METHODS AND COMPOSITIONS FOR CONTROLLING PESTS IN RICE” (Globachem NV, priority 2022, published 2025).

Tested on: Chilo suppressalis
Assay: Rice field trials, Chilo suppressalis insect damage / white heads (Example 1, Trials 3-4, Thailand)
Format: in vivo
Settings: Trial 3
Experimental: All applications were made with an EC formulation containing 650 g/L of pelargonic acid (e.g., 685 g/L of 95% purity pelargonic acid), an anionic emulsifier and a branched fatty acid ester solvent. […] Trials 1 4 assessing the use of pelargonic acid for controlling Chilo suppressalis in rice were conducted in Spain and Thailand. Application A was made to the crops at the beginning of infestations; for these trials, Stage BBCH 59; Application B was made 14 days after Application A. Trial 3 was conducted in Thailand using a water volume of 500 L/ha of water per application unless otherwise indicated. Insect Damage ([…] %), Insect Damage (Number) and Phytotoxicity were assessed at various treatment evaluation intervals. Population levels were recorded by counting number of rice plants per hill, number of white head (damage from rice stem borer) followed by calculation of % insect damage. Trial 4 was conducted in Thailand using a water volume of 500 L/ha of water per application unless otherwise indicated. Insect Damage ([…] %), Insect Damage (Number) and Phytotoxicity were assessed at various treatment evaluation intervals. Population levels were recorded by counting number of rice plants per hill, number of white head (damage from rice stem borer) followed by calculation of % insect damage.

[1] = 0 DAA, water volume 500 L/ha, rate in treatment name, Prevathon 0.5 L/ha, listed as PA 585 g/ha
[2] = 0 DAA, water volume 500 L/ha, rate in treatment name, Prevathon 0.5 L/ha, listed as PA 975 g/ha
[3] = 0 DAA, water volume 500 L/ha, rate in treatment name, Prevathon 0.5 L/ha, listed as PA 1300 g/ha
[4] = 0 DAA, water volume 500 L/ha, rate in treatment name, Prevathon 0.5 L/ha, listed as PA 2600 g/ha
[5] = 0 DAB, water volume 500 L/ha, rate in treatment name, Prevathon 0.5 L/ha, listed as PA 585 g/ha
[6] = 0 DAB, water volume 500 L/ha, rate in treatment name, Prevathon 0.5 L/ha, listed as PA 975 g/ha
[7] = 0 DAB, water volume 500 L/ha, rate in treatment name, Prevathon 0.5 L/ha, listed as PA 1300 g/ha
[8] = 0 DAB, water volume 500 L/ha, rate in treatment name, Prevathon 0.5 L/ha, listed as PA 2600 g/ha
[9] = 7 DAA, water volume 500 L/ha, rate in treatment name, Prevathon 0.5 L/ha, listed as PA 585 g/ha
[10] = 7 DAA, water volume 500 L/ha, rate in treatment name, Prevathon 0.5 L/ha, listed as PA 975 g/ha
[11] = 7 DAA, water volume 500 L/ha, rate in treatment name, Prevathon 0.5 L/ha, listed as PA 1300 g/ha
[12] = 7 DAA, water volume 500 L/ha, rate in treatment name, Prevathon 0.5 L/ha, listed as PA 2600 g/ha
[13] = 7 DAB, water volume 500 L/ha, rate in treatment name, Prevathon 0.5 L/ha, listed as PA 585 g/ha
[14] = 7 DAB, water volume 500 L/ha, rate in treatment name, Prevathon 0.5 L/ha, listed as PA 975 g/ha
[15] = 7 DAB, water volume 500 L/ha, rate in treatment name, Prevathon 0.5 L/ha, listed as PA 1300 g/ha
[16] = 7 DAB, water volume 500 L/ha, rate in treatment name, Prevathon 0.5 L/ha, listed as PA 2600 g/ha
[17] = 10 DAA, water volume 500 L/ha, rate in treatment name, Prevathon 0.5 L/ha, listed as PA 585 g/ha
[18] = 10 DAA, water volume 500 L/ha, rate in treatment name, Prevathon 0.5 L/ha, listed as PA 975 g/ha
[19] = 10 DAA, water volume 500 L/ha, rate in treatment name, Prevathon 0.5 L/ha, listed as PA 1300 g/ha
[20] = 10 DAA, water volume 500 L/ha, rate in treatment name, Prevathon 0.5 L/ha, listed as PA 2600 g/ha
[21] = 10 DAB, water volume 500 L/ha, rate in treatment name, Prevathon 0.5 L/ha, listed as PA 585 g/ha
[22] = 10 DAB, water volume 500 L/ha, rate in treatment name, Prevathon 0.5 L/ha, listed as PA 975 g/ha
[23] = 10 DAB, water volume 500 L/ha, rate in treatment name, Prevathon 0.5 L/ha, listed as PA 1300 g/ha
[24] = 10 DAB, water volume 500 L/ha, rate in treatment name, Prevathon 0.5 L/ha, listed as PA 2600 g/ha
[25] = 14 DAB, water volume 500 L/ha, rate in treatment name, Prevathon 0.5 L/ha, listed as PA 585 g/ha
[26] = 14 DAB, water volume 500 L/ha, rate in treatment name, Prevathon 0.5 L/ha, listed as PA 975 g/ha
[27] = 14 DAB, water volume 500 L/ha, rate in treatment name, Prevathon 0.5 L/ha, listed as PA 1300 g/ha
[28] = 14 DAB, water volume 500 L/ha, rate in treatment name, Prevathon 0.5 L/ha, listed as PA 2600 g/ha
[29] = 21 DAB, water volume 500 L/ha, rate in treatment name, Prevathon 0.5 L/ha, listed as PA 585 g/ha
[30] = 21 DAB, water volume 500 L/ha, rate in treatment name, Prevathon 0.5 L/ha, listed as PA 975 g/ha
[31] = 21 DAB, water volume 500 L/ha, rate in treatment name, Prevathon 0.5 L/ha, listed as PA 1300 g/ha

In the case of CCCCCCCCC(=O)O [PA 650 g/ha, pelargonic acid], the “DAMINS % (insect damage, % white heads)” value (0 DAA, water volume 200 L/ha) is reported as 0.83%, the “DAMINS (number): mean number of insect damage (white head symptoms)” value (“DAMINS (number): mean number” for short) (0 DAA, water volume 200 L/ha) is reported as 3.4 and the “DAMINS % (insect damage, % white heads)” value [1] is reported as 0.79%. For the same compound, the “DAMINS (number): mean number” value [1] was 3.23, the “DAMINS % (insect damage, % white heads)” value [2] was 0.9% and the “DAMINS (number): mean number” value [2] was 3.8. For the same compound, the “DAMINS % (insect damage, % white heads)” value [3] was 0.75%, the “DAMINS (number): mean number” value [3] was 3.11 and the “DAMINS % (insect damage, % white heads)” value [4] was 0.74%. For the same compound, the “DAMINS (number): mean number” value [4] was 3.14, the “DAMINS % (insect damage, % white heads)” value (0 DAB, water volume 200 L/ha) was 0.25% and the “DAMINS (number): mean number” value (0 DAB, water volume 200 L/ha) was 0.94. For the same compound, the “DAMINS % (insect damage, % white heads)” value [5] was 0.6%, the “DAMINS (number): mean number” value [5] was 2.54 and the “DAMINS % (insect damage, % white heads)” value [6] was 0.46%. For the same compound, the “DAMINS (number): mean number” value [6] was 1.91, the “DAMINS % (insect damage, % white heads)” value [7] was 0.39% and the “DAMINS (number): mean number” value [7] was 1.61. The “DAMINS % (insect damage, % white heads)” value [8] was 0.29%, the “DAMINS (number): mean number” value [8] was 1.23 and the “DAMINS % (insect damage, % white heads)” value (7 DAA, water volume 200 L/ha) was 0.29%. The “DAMINS (number): mean number” value (7 DAA, water volume 200 L/ha) was 1.16, the “DAMINS % (insect damage, % white heads)” value [9] was 0.65% and the “DAMINS (number): mean number” value [9] was 2.93. The “DAMINS % (insect damage, % white heads)” value [10] was 0.53%, the “DAMINS (number): mean number” value [10] was 2.13 and the “DAMINS % (insect damage, % white heads)” value [11] was 0.4%. The “DAMINS (number): mean number” value [11] was 1.74, the “DAMINS % (insect damage, % white heads)” value [12] was 0.39% and the “DAMINS (number): mean number” value [12] was 1.79. The “DAMINS % (insect damage, % white heads)” value (7 DAB, water volume 200 L/ha) was 0.55%, the “DAMINS (number): mean number” value (7 DAB, water volume 200 L/ha) was 2.4 and the “DAMINS % (insect damage, % white heads)” value [13] was 0.84%. The “DAMINS (number): mean number” value [13] was 3.82, the “DAMINS % (insect damage, % white heads)” value [14] was 0.73% and the “DAMINS (number): mean number” value [14] was 3.31. For the same compound, the “DAMINS % (insect damage, % white heads)” value [15] was 0.64%, the “DAMINS (number): mean number” value [15] was 2.84 and the “DAMINS % (insect damage, % white heads)” value [16] was 0.49%. The “DAMINS (number): mean number” value [16] was 2.24, the “DAMINS % (insect damage, % white heads)” value (10 DAA, water volume 200 L/ha) was 0.25% and the “DAMINS (number): mean number” value (10 DAA, water volume 200 L/ha) was 0.99. The “DAMINS % (insect damage, % white heads)” value [17] was 0.63%, the “DAMINS (number): mean number” value [17] was 2.92 and the “DAMINS % (insect damage, % white heads)” value [18] was 0.58%. The “DAMINS (number): mean number” value [18] was 2.26, the “DAMINS % (insect damage, % white heads)” value [19] was 0.41% and the “DAMINS (number): mean number” value [19] was 1.77. For the same compound, the “DAMINS % (insect damage, % white heads)” value [20] was 0.31%, the “DAMINS (number): mean number” value [20] was 1.49 and the “DAMINS % (insect damage, % white heads)” value (10 DAB, water volume 200 L/ha) was 0.44%. For the same compound, the “DAMINS (number): mean number” value (10 DAB, water volume 200 L/ha) was 1.84, the “DAMINS % (insect damage, % white heads)” value [21] was 0.71% and the “DAMINS (number): mean number” value [21] was 3.39. The “DAMINS % (insect damage, % white heads)” value [22] was 0.66%, the “DAMINS (number): mean number” value [22] was 3.11 and the “DAMINS % (insect damage, % white heads)” value [23] was 0.38%. For the same compound, the “DAMINS (number): mean number” value [23] was 1.65, the “DAMINS % (insect damage, % white heads)” value [24] was 0.33% and the “DAMINS (number): mean number” value [24] was 1.39. The “DAMINS % (insect damage, % white heads)” value (14 DAB, water volume 200 L/ha) was 0.39%, the “DAMINS (number): mean number” value (14 DAB, water volume 200 L/ha) was 1.53 and the “DAMINS % (insect damage, % white heads)” value [25] was 0.56%. The “DAMINS (number): mean number” value [25] was 2.35, the “DAMINS % (insect damage, % white heads)” value [26] was 0.64% and the “DAMINS (number): mean number” value [26] was 2.82. For the same compound, the “DAMINS % (insect damage, % white heads)” value [27] was 0.45%, the “DAMINS (number): mean number” value [27] was 1.94 and the “DAMINS % (insect damage, % white heads)” value [28] was 0.3%. For the same compound, the “DAMINS (number): mean number” value [28] was 1.25, the “DAMINS % (insect damage, % white heads)” value (21 DAB, water volume 200 L/ha) was 0.36% and the “DAMINS (number): mean number” value (21 DAB, water volume 200 L/ha) was 1.47. The “DAMINS % (insect damage, % white heads)” value [29] was 0.8%, the “DAMINS (number): mean number” value [29] was 3.41 and the “DAMINS % (insect damage, % white heads)” value [30] was 0.6%. The “DAMINS (number): mean number” value [30] was 2.7, the “DAMINS % (insect damage, % white heads)” value [31] was 0.39% and the “DAMINS (number): mean number” value [31] was 1.64.
